# Assay results from article PMC5963671, “Hes1 inhibitor isolated by target protein oriented natural products isolation (TPO-NAPI) of differentiation activators of neural stem cells† †Electronic supplementary information (ESI) available. See DOI: 10.1039/c5sc03540f” (Chemical Science, 2015).
# T1: Hes1 (Rattus norvegicus, UniProt Q04666)
# T1 construct: Rat-Hes1 (residues 3-281)
# T1 sequence (Q04666 3-281): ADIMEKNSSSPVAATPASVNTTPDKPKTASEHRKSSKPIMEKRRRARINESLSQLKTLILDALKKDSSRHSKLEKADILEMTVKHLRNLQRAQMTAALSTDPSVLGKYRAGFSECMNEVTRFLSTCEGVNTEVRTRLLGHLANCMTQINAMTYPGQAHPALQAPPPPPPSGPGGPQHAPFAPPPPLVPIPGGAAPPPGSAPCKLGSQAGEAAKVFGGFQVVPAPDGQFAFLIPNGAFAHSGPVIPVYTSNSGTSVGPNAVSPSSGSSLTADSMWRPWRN
# Key:
# Hes1 [1] = molecular target: T1, Hes1; assay: biochemical; parameters: Fluorescence plate assay of Hes1 dimer formation, immobilized Hes1 with Cy3-labeled Hes1; settings: Hes1 dimer formation
# Description: Nunc Immobilizer™ Amino 96 well plate, white (Nalge Nunc Int.) was used for immobilizing of Hes1. The wells were incubated with 100 μL of Hes1 (10 μg mL^–1 in PBS) for 2 h at 4 °C. After the removal of protein solution, to block remaining activated units on the well, the wells were incubated for 2 h at 4 °C with 100 μL of 10 mM ethanolamine (in 100 mM Na2CO3 buffer, pH 9.6), then washed twice with 200 μL of PBST (PBS containing 0.05% Tween 20). The Hes1 bound microplate wells were incubated with 50 μL of Cy3-labeled-Hes1 in NET-N buffer (ca. 7 mg L^–1, dye/protein = 0.65) for 24 h at 4 °C. After removal of protein solution, each well was washed twice with 200 μL of PBST, then each compound solution (NET-N buffer, 50 μL) was added. After incubation for 1 h at RT in the dark, each well was washed twice with 200 μL of PBST, then dried under reduced pressure 1 h in the dark. The fluorescence intensity was measured in a microplate reader (Fluoroskan Ascent, Thermo). The Cy3 dye was excited at 530 nm and emitted at 590 nm. Usually, the assays were carried out in three individual wells, and the mean value and SD were calculated. Fig. 4 Hes1 dimer formation inhibitory activity. (a) Schematic representation of the assay for inhibitors of Hes1 dimer formation. Rat-Hes1 (residues 3-281) was exposed to Cy3-labeled Hes1. Hes1 dimer was detected through its fluorescence intensity.[40] The assay was performed after the equilibrium of exchange between immobilized Hes1 with Cy3-Hes1 and unlabeled Hes1 which was estimated to be included as unlabeled Hes1 dimers at the immobilizing stage. (b) Hes1 dimer formation inhibition by the isolated compounds 2–4. […] The complex was detected with horseradish peroxidase (HRP) conjugated anti-GST antibody. […] The ratio of dye/protein was calculated from the absorption for Cy3 (ε 150000 M-1 cm-1 at 552 nm). […] Fluorescence plate assay for inhibitors of Hes1 dimer formation Nunc ImmobilizerTM Amino 96 well plate, white (Nalge Nunc Int.) was used for immobilizing of Hes1. […] The fluorescence intensity was measured in a microplate reader (Fluoroskan Ascent, Thermo). […]
# Hes1 [2] = molecular target: T1, Hes1; assay: Hes1 dimer fluorescence plate assay (Cy3-Hes1); binding also shown by GST-Hes1 beads-HPLC with truncated proteins
# Hes1 [3] = molecular target: T1, Hes1; assay: Hes1 dimer fluorescence plate assay (Cy3-Hes1); binding also shown by GST-Hes1 beads-HPLC
# [4] = molecular target: the molecule itself; assay: fluorescence plate assay (Hes1 dimer plate assay); Hes1 (10 μg/mL in PBS) immobilised on a Nunc Immobilizer Amino 96 well plate; Cy3-labeled Hes1 (ca. 7 mg/L) in NET-N buffer for 24 h at 4 °C; washed with PBST; fluorescence read at 530/590 nm
IC50 (Hes1 [1]) [µM],Molecule,also measured
3.7,"CCCC(=O)/C=C/C1=C(O)C(=O)c2cc(O)c(O)cc2C1=O [compound 1, lindbladione]",–
–,"COc1ccc(-c2cc(=O)c3c(O[C@@H]4O[C@H](CO[C@@H]5OC[C@@H](O)[C@H](O)[C@H]5O)[C@@H](O)[C@H](O)[C@H]4O)cc(OC)cc3o2)cc1 [compound 2, agalloside]",IC50 (Hes1 [2]): 10.1 µM
> 64,"COc1cc(O[C@@H]2O[C@H](CO[C@@H]3OC[C@@H](O)[C@H](O)[C@H]3O)[C@@H](O)[C@H](O)[C@H]2O)c2c(=O)cc(-c3ccc(O)cc3)oc2c1 [compound 3, genkwanin 5-O-β-D-xylosyl-β-D-glucoside]",–
–,"COc1cc(O[C@@H]2O[C@H](CO[C@@H]3OC[C@@H](O)[C@H](O)[C@H]3O)[C@@H](O)[C@H](O)[C@H]2O)c2c(=O)cc(-c3ccc(OC)c(OC)c3)oc2c1 [compound 4, lethedioside A]",IC50 (Hes1 [3]): 9.5 µM
> 64,"COc1c(O)cc2oc3cc(O)c(CC=C(C)C)c(O)c3c(=O)c2c1CC=C(C)C [compound 5, α-Mangostine]",–
–,"Rat-Hes1 (residues 3-281) (natural protein, UniProt Q04666 3-281, looked up, Cy3 label on the copy added in solution (dye/protein = 0.65); the immobilised copy is unlabelled, Hes1 (hairy and Enhancer of split 1), rat, residues 3-281; One copy was coupled to a Nunc Immobilizer Amino plate and the other was Cy3-labelled; also called Cy3-labeled Hes1; Cy3-Hes1) ADIMEKNSSSPVAATPASVNTTPDKPKTASEHRKSSKPIMEKRRRARINESLSQLKTLILDALKKDSSRHSKLEKADILEMTVKHLRNLQRAQMTAALSTDPSVLGKYRAGFSECMNEVTRFLSTCEGVNTEVRTRLLGHLANCMTQINAMTYPGQAHPALQAPPPPPPSGPGGPQHAPFAPPPPLVPIPGGAAPPPGSAPCKLGSQAGEAAKVFGGFQVVPAPDGQFAFLIPNGAFAHSGPVIPVYTSNSGTSVGPNAVSPSSGSSLTADSMWRPWRN",binding result [4]: binds
